Test results published in patent publication US10766866B2, “Deterrents for arthropods and marine organisms” (priority 2017, dated 2020).
Where two headings read alike, the source gives them in different places.

Columns and labels:
[1] = biological target: T1, AgAOctR (Anopheles octopamine receptor isoform A), cloned α-like OctR (Anopheles gambiae, UniProt Q7PRZ8); assay: OctR activation: change in intracellular calcium (CALCIUM 6QR dye, FlexStation 3) in stably transfected mammalian cells; format: cell-based; settings: agonist
T1 construct: Gq calcium readout
T1 sequence (Q7PRZ8 1-592): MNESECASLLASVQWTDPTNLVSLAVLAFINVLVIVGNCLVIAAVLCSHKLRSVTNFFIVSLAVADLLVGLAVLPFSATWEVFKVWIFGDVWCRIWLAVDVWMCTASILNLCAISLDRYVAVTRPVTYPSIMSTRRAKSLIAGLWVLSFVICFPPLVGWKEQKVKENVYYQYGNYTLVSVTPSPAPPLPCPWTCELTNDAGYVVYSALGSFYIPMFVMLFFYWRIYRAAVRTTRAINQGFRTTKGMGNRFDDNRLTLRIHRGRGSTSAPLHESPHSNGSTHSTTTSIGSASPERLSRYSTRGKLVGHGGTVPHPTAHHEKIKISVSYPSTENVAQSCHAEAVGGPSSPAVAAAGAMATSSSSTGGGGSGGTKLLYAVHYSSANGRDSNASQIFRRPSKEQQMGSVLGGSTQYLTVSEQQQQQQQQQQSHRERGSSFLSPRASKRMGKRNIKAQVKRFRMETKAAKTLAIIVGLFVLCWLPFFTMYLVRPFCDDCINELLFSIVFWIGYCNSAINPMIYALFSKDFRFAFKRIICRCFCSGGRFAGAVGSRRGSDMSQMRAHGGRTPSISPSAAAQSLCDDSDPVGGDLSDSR
From the text: (§1) Functional expression of cloned arthropod OctRs and human α2-ARs: The cDNAs for α-like OctRs from different arthropod species (e.g., Anopheles gambiae, Aedes aegypti, Periplaneta americana, Drosophila melanogaster, Ixodes scapularis, Balanus improvises) and for α2-AR subtypes from humans were individually subcloned into mammalian expression vectors. These plasmids, which harbor a resistance gene for the selection drug G418 and the cDNA sequence for the receptor of interest, were individually transfected into mammalian cells using a calcium phosphate precipitation method. G418 selection was then employed to generated stable clonal cell lines. Utilizing rapid filtration radioligand binding techniques, the cell surface density of receptor expression of the individual clonal cell lines was determined at equilibrium and those with similar high levels of expression were selected for further experiments. Briefly, binding conditions were 50 mM Tris binding buffer pH 7.4 at 25° C. and an ice-cold wash buffer 10 mM Tris-HCl, pH 7.4). The radioligand was [3H]rauwolscine and non-specific binding was determined in the presence of 10 μM atipamezole. Following the addition of membranes prepared from the clonal cell lines, samples were mixed and allowed 2 hr. to reach equilibrium before rapid filtration and washing through 0.3% PEI-treated GF/C filters. The radioactivity remaining on the filters was quantified by scintillation counting. Receptor density (Bmax) was back calculated knowing the specific activity of the radioligand and applying the equation for a square hyperbola model: Bmax=(Y·(KD+X))/X, where Y is [specifically bound radioligand] and X=[radio ligand concentration]. The affinity (KD) for the radioligand for each receptor was determined in separate saturation isotherm binding experiments using the same binding conditions as describe above.
(§2) Measurement of OctR activation by measuring changes in intracellular calcium: Activation of arthropod α-like OctRs increases intracellular calcium via a Gq-coupling mechanism. This involves activation of phospholipase C leading to an increase in intracellular inositol triphosphate (IP3) which then activates IP3-gated calcium channels in the endoplasmic reticulum causing a transient rise in intracellular calcium. These changes in intracellular calcium upon OctR activation were measured by loading cells with intracellular calcium sensitive dye CALCIUM 6QR and reading the change in calcium-induced fluorescent signal over time on a FlexStation 3 microplate reader.

[2] = test system: IsTOctR (Ixodes octopamine receptor), cloned α-like OctR; assay: as above; format: cell-based, Ixodes scapularis
From the text: as §1, §2

[3] = test system: Aedes aegypti α-like OctR (AeOctR); assay: OctR activation, change in intracellular calcium; format: cell-based; settings: 100 μM; normalized to octopamine at a supersaturating concentration; FIG. 1B
From the text: as §1, §2

[4] = biological target: T2, Drosophila melanogaster α-like OctR (DmOctR) (Drosophila melanogaster, UniProt Q7JQF1); assay: OctR activation, change in intracellular calcium; format: cell-based; settings: 100 μM; normalized to octopamine at a supersaturating concentration; FIG. 1A
T2 construct: expressed in transfected cells
T2 sequence (Q7JQF1 1-645): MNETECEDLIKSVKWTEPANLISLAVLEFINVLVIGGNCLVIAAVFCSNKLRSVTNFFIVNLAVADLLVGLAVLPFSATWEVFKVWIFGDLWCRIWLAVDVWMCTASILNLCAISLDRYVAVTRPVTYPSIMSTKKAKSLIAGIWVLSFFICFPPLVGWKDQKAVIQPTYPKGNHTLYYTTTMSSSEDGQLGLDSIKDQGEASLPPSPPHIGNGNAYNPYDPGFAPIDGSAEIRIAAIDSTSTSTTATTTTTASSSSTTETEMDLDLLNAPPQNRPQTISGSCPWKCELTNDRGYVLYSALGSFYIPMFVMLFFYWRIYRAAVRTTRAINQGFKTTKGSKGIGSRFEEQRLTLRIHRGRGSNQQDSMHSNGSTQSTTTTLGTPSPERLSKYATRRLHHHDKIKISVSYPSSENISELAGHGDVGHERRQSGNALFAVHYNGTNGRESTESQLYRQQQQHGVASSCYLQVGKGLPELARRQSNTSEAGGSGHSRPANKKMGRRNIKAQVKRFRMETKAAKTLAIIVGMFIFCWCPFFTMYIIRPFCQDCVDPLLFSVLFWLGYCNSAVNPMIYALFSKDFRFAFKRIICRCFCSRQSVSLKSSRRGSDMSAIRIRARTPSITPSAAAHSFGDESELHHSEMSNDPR
From the text: as §1, §2

[5] = test system: Ixodes scapularis tick OctR (IsTOctR); assay: OctR activation, change in intracellular calcium; format: cell-based; settings: 100 μM; normalized to octopamine at a supersaturating concentration; FIG. 1C
From the text: as §1, §2

[6] = test system: Periplaneta americana OctR (PaOctR); assay: OctR activation, change in intracellular calcium; format: cell-based; settings: 100 μM; normalized to octopamine at a supersaturating concentration; FIG. 1D
From the text: as §1, §2

[7] = test system: Aedes mosquito; assay: Protection against mosquito biting and toxicity to mosquitoes; format: in vivo; settings: DEET: at the lowest concentration that produces maximal protection against biting (LC50)
[8] = test system: Anopheles gambiae mosquito isoform A OctR (AgAOctR); assay: OctR activation, change in intracellular calcium; format: cell-based; settings: for selectivity Ki(Hsα2-AR)/EC50(OctR): AgAOctR over Homo sapien α2-AR subtypes
From the text: as §1, §2

[9] = biological target: T3, DmOctR (Drosophila octopamine receptor), cloned α-like OctR (Drosophila melanogaster, UniProt Q7JQF1); assay: OctR activation: change in intracellular calcium (CALCIUM 6QR dye, FlexStation 3) in stably transfected mammalian cells; format: cell-based; settings: agonist
T3 construct: Gq calcium readout
T3 sequence (Q7JQF1 1-645): T2 sequence (Q7JQF1 1-645)
From the text: as §1, §2

[10] = biological target: T4, PaOctR (Periplaneta octopamine receptor), cloned α-like OctR (Periplaneta americana, UniProt Q7YWB7); assay: as above; format: cell-based; settings: agonist
T4 construct: Gq calcium readout
T4 sequence (Q7YWB7 1-628): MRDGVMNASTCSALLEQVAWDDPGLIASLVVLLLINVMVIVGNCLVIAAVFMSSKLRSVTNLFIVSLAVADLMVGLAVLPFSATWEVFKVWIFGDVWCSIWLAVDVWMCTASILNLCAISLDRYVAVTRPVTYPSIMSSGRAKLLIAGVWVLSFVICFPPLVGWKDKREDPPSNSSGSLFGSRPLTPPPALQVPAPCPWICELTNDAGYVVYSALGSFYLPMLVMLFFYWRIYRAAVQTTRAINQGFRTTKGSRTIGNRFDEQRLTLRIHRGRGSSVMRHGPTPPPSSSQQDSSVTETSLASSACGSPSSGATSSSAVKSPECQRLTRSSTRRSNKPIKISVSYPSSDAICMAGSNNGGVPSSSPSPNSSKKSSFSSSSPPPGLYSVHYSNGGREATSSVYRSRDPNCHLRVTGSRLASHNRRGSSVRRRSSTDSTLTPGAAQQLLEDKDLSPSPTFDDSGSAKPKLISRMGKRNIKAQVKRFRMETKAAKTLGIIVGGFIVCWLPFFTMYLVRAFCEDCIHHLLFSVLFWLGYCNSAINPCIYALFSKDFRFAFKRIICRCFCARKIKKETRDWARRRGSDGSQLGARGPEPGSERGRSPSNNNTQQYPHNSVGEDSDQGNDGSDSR
From the text: as §1, §2

[11] = test system: AeOctR (Aedes octopamine receptor), cloned α-like OctR; assay: as above; format: cell-based, Aedes aegypti; settings: agonist
From the text: as §1, §2

[12] = biological target: T5, Hsα2A-AR (human α2A adrenergic receptor) (Homo sapiens, UniProt P08913); assay: [3H]rauwolscine competition radioligand binding, membranes of clonal mammalian cell lines; settings: 50 mM Tris pH 7.4, 25° C., 2 hr, Cheng-Prusoff
T5 construct: expressed in transfected cells; membranes
T5 sequence (P08913 whole entry): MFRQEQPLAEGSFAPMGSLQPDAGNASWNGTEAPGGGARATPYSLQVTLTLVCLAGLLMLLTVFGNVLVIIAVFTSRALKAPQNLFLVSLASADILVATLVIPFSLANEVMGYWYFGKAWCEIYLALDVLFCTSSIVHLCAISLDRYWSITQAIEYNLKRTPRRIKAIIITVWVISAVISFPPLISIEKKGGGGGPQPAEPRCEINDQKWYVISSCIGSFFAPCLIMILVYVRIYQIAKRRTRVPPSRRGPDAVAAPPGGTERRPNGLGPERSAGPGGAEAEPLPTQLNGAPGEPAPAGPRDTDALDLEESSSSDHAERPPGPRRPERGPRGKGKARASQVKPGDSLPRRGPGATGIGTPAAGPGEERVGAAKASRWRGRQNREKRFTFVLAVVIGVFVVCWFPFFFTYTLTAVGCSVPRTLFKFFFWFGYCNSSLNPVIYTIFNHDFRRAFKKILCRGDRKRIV
From the text: as §1
(§3) Measurement of compound affinities by competition radioligand binding: Affinities (Ki) for compounds were determined by [3H]rauwolscine competition binding using the same binding conditions as described above. The Ki values were calculated from IC50 values using the Cheng-Prusoff equation.

[13] = biological target: T6, Hsα2C-AR (human α2C adrenergic receptor) (Homo sapiens, UniProt P18825); assay: as above; settings: 50 mM Tris pH 7.4, 25° C., 2 hr, Cheng-Prusoff
T6 construct: expressed in transfected cells
T6 sequence (P18825 1-462): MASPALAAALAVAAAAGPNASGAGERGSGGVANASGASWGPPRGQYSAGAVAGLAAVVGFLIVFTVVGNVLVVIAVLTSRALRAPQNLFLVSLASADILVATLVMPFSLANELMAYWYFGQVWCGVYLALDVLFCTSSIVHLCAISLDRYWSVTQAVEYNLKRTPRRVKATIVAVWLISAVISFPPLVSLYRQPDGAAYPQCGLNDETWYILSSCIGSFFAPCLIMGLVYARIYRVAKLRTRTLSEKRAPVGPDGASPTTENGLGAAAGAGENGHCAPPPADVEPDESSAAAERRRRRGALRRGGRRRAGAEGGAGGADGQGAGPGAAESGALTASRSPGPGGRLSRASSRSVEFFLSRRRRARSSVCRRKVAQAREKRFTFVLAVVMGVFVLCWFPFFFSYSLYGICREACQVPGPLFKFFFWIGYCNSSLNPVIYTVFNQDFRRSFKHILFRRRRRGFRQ
From the text: as §1, §3

[14] = agonist, read-out: IsTOctR (Ixodes octopamine receptor) EC50

Row | Structure (SMILES) | EC50 [1] [µM] | EC50 [2, 14] [µM] | agonist response (change in intracellular calcium) relative to octopamine [3] | agonist response (change in intracellular calcium) relative to octopamine [4] | selectivity Ki(Hsα2-AR)/EC50(OctR) [8] | EC50 [9] [µM] | EC50 [10] [µM] | Ki [12] [µM] | Ki [13] [µM] | also measured
1 | C/C=C(\c1cnc[nH]1)c1cccc(C)c1C [AZ1409 Z-isomer] | 0.058 ± 0.041 | 0.969 ± 0.358 | – | – | – | – | – | – | – | –
2 | CCN(CC)C(=O)c1cccc(C)c1 [DEET, N,N-diethyl-meta-toluamide] | – | – | did not produce a significant agonist response | did not produce a significant agonist response | – | – | – | – | – | agonist response (change in intracellular calcium) relative to octopamine [5]: did not produce a significant agonist response; agonist response (change in intracellular calcium) relative to octopamine [6]: did not produce a significant agonist response; toxicity to mosquitoes [7]: lethal in half the mosquitoes
3 | Cc1cccc(C(O)c2cnc[nH]2)c1C (stereo not drawn) [AZ0024] | 0.00042 ± 0.00013 | 0.0044 ± 0.0029 | – | – | highly selective | 0.057 ± 0.013 | 0.0059 ± 0.0029 | 0.356 ± 0.077 | 0.558 ± 0.085 | EC50 [11]: 0.627 ± 0.274 µM
4 | CC1CCC(C(C)(C)O)C(O)C1 (stereo not drawn) [PMD, para-menthane-3,8-diol] | – | – | < 25% | < 25% | – | – | – | – | – | –
5 | Cc1c(C(O)c2cnc[nH]2)cccc1C(F)(F)F (stereo not drawn) [AZ1399] | 0.011 ± 0.0037 | 0.043 ± 0.011 | – | – | highly selective | 0.367 ± 0.237 | 0.082 ± 0.025 | 3.21 ± 0.672 | 2.11 ± 0.385 | –
6 | C=C(c1cnc[nH]1)c1cccc(C(F)(F)F)c1C [AZ1415] | 0.00058 ± 0.00061 | 0.018 ± 0.0069 | – | – | highly selective | – | – | – | – | efficacy (full/partial agonist) ([8]; in words, FIGS. 9-12): full efficacy; potency (EC50) ([8]; in words, FIGS. 9-12): high potency
7 | COC(c1cnc[nH]1)c1cccc(C)c1C (stereo not drawn) [AZ1400] | 0.0023 ± 0.00069 | 0.035 ± 0.0074 | – | – | highly selective | 0.846 ± 0.44 | 0.085 ± 0.034 | 1.31 ± 0.247 | 0.973 ± 0.146 | EC50 [11]: > 20 µM
8 | C/C=C(/c1cnc[nH]1)c1cccc(C)c1C [AZ1440 E-isomer] | 0.01 ± 0.0047 | – | – | – | – | – | – | – | – | EC50 ([2]; read-out: IsTOctR (Ixodes octopamine receptor) EC50, agonist): 0.09 ± 0.025 µM
9 | CCCCN(CCC(=O)OCC)C(C)=O [IR3535, ethyl butylacetylaminopropionate] | – | – | did not produce a significant agonist response | did not produce a significant agonist response | – | – | – | – | – | agonist response (change in intracellular calcium) relative to octopamine [5]: did not produce a significant agonist response; agonist response (change in intracellular calcium) relative to octopamine [6]: did not produce a significant agonist response
10 | Cc1cccc(C(O)c2cnc[nH]2)c1 (stereo not drawn) [AZ1410] | 0.038 ± 0.016 | 0.185 ± 0.092 | – | – | highly selective | – | – | 4.2 ± 1.76 | 9.44 ± 6.47 | –
